#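 Five concentrations, 48 hours, 96-well plates. GI50 is the concentration that inhibits growth by half. TGI marks complete inhibition of growth.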
# Columns and labels:
# Assay in all cases: NCI anticancer screen, dose series, 48 h
# HOP-92 NSCLC = test system: HOP-92 NSCLC
# SF-268 CNS = test system: SF-268 CNS
# SK-MEL-5 melanoma = test system: SK-MEL-5 melanoma
# MOLT-4 leukemia = test system: MOLT-4 leukemia
# NCI-H226 lung = test system: NCI-H226 lung
# SN12C renal = test system: SN12C renal
# SF-539 CNS = test system: SF-539 CNS
# HCT-116 colon = test system: HCT-116 colon
# HS 578T breast = test system: HS 578T breast
# T-47D breast = test system: T-47D breast
# UO-31 renal = test system: UO-31 renal
# OVCAR-8 ovarian = test system: OVCAR-8 ovarian
# KM12 colon = test system: KM12 colon
# SW-620 colon = test system: SW-620 colon
# A549 NSCLC = test system: A549 NSCLC
# RXF 393 renal = test system: RXF 393 renal
# BT-549 breast = test system: BT-549 breast
# NCI-H23 lung = test system: NCI-H23 lung
# SF-295 CNS = test system: SF-295 CNS
# U251 CNS = test system: U251 CNS
# RPMI-8226 leukemia = test system: RPMI-8226 leukemia
# HT29 colon = test system: HT29 colon
# K-562 leukemia = test system: K-562 leukemia
# SNB-75 CNS = test system: SNB-75 CNS
# MDA-MB-435 = test system: MDA-MB-435
# CCRF-CEM leukemia = test system: CCRF-CEM leukemia
# OVCAR-3 ovarian = test system: OVCAR-3 ovarian
# MDA-MB-231 breast = test system: MDA-MB-231 breast
# HL-60(TB) leukemia = test system: HL-60(TB) leukemia
compound,measurement,setting,value
COc1ccccc1Nc1cc(O)c2c(=O)cc(-c3ccccc3)oc2c1,TGI,HOP-92 NSCLC,23.7 µM
same,GI50,SF-268 CNS,4.71 µM
same,TGI,SF-268 CNS,48.2 µM
same,GI50,SK-MEL-5 melanoma,3 µM
same,TGI,SK-MEL-5 melanoma,9.58 µM
same,GI50,MOLT-4 leukemia,4.08 µM
same,TGI,MOLT-4 leukemia,> 100 µM
same,GI50,NCI-H226 lung,4.38 µM
same,TGI,NCI-H226 lung,28.8 µM
same,GI50,SN12C renal,3.5 µM
same,TGI,SN12C renal,17.6 µM
same,GI50,SF-539 CNS,2.73 µM
same,TGI,SF-539 CNS,10.4 µM
same,GI50,HCT-116 colon,3.31 µM
same,TGI,HCT-116 colon,> 100 µM
same,GI50,HS 578T breast,3.61 µM
same,TGI,HS 578T breast,32.6 µM
same,GI50,T-47D breast,4.36 µM
same,TGI,T-47D breast,> 100 µM
same,GI50,UO-31 renal,3.57 µM
same,TGI,UO-31 renal,21.5 µM
same,GI50,OVCAR-8 ovarian,4.65 µM
same,TGI,OVCAR-8 ovarian,> 100 µM
same,GI50,KM12 colon,2.76 µM
same,TGI,KM12 colon,55.2 µM
same,GI50,SW-620 colon,2.5 µM
same,TGI,SW-620 colon,> 100 µM
same,GI50,A549 NSCLC,5.16 µM
same,TGI,A549 NSCLC,> 100 µM
same,GI50,RXF 393 renal,1.74 µM
same,TGI,RXF 393 renal,5.34 µM
same,GI50,BT-549 breast,4.96 µM
same,TGI,BT-549 breast,37.2 µM
same,GI50,NCI-H23 lung,4.22 µM
same,TGI,NCI-H23 lung,52.6 µM
same,GI50,SF-295 CNS,2.98 µM
same,TGI,SF-295 CNS,13.2 µM
same,GI50,U251 CNS,3.63 µM
same,TGI,U251 CNS,> 100 µM
same,GI50,RPMI-8226 leukemia,4.51 µM
same,TGI,RPMI-8226 leukemia,> 100 µM
same,GI50,HT29 colon,3.64 µM
same,TGI,HT29 colon,> 100 µM
same,GI50,K-562 leukemia,0.59 µM
same,TGI,K-562 leukemia,> 100 µM
same,GI50,SNB-75 CNS,2.39 µM
same,TGI,SNB-75 CNS,8.5 µM
same,GI50,MDA-MB-435,0.36 µM
same,TGI,MDA-MB-435,2.03 µM
same,GI50,CCRF-CEM leukemia,3.57 µM
same,TGI,CCRF-CEM leukemia,> 100 µM
same,GI50,OVCAR-3 ovarian,2.05 µM
same,TGI,OVCAR-3 ovarian,5.2 µM
same,GI50,MDA-MB-231 breast,3.96 µM
same,TGI,MDA-MB-231 breast,18.4 µM
same,GI50,HL-60(TB) leukemia,2.79 µM
same,TGI,HL-60(TB) leukemia,34.9 µM
